Data taken from patent US6245917A, “Crystalline sodium phenytoin monohydrate” (Warner-Lambert Company, priority 1999, dated 2001).

Assay: Repeated water uptake study with solvent-free SPM (dichloromethane preparation)
Type: physicochemical
Description: Study of weight change under controlled humidity conditions, samples were placed in open vials, which were placed in closed controlled-humidity jars. Relative humidities were controlled using saturated aqueous salt solutions: 58% RH, NaBr; 75% RH, (NH4)2 SO4; 76%, sodium acetate; 84% RH, KBr.
A possible cause of the observed weight loss is that some reaction solvent (toluene in this case) from the preparation of SPM remained on the solid and evaporated in the humidity jars. To test this theory, it was decided to prepare SPM, show it to be solvent-free, and repeat the water uptake studies. Dichloromethane was chosen as the organic solvent for the preparation rather than toluene because its lower boiling point should allow it to be removed from the solid more easily and completely. SPM was made by stirring a slurry of SPA and one equivalent of water in dichloromethane for 2 days, then isolation by filtration and air-drying of the solid SPM.
The remainder of the SPM sample was allowed to dry in an open jar under ambient conditions for about 1 week. It was then characterized by XRPD elemental analysis, and Karl Fischer (KF) analysis. The sample appears to be pure SPM containing very little, if any, residual solvent.
Both SPM and SPA increased in weight about 20% when equilibrium was reached (constant weight) at each humidity utilized. The samples were analyzed by XRPD after completion of the water uptake experiments. […] The nature of this form has not been determined.

For `O=C1NC(=O)C(c2ccccc2)(c2ccccc2)N1` [SPA, sodium phenytoin anhydrate, reference compound], the “Percent change based on average of final two weights” value (“Percent change based on average” below) (58% RH) was “+19%”, the sample weight (58% RH, day 0 (starting weight)) was 1.5087 g and the “change in starting weight” value (58% RH, day 1) was “+0.0263 g”. The sample weight (58% RH, day 1) was 1.5350 g, the “change in starting weight” value (58% RH, day 2) was “+0.0510 g” and the sample weight (58% RH, day 2) was 1.5597 g. The “change in starting weight” value (58% RH, day 3) was “+0.0793 g”, the sample weight (58% RH, day 3) was 1.5880 g and the “change in starting weight” value (58% RH, day 4) was “+0.1011 g”. For the same molecule, the sample weight (58% RH, day 4) was 1.6098 g, the “change in starting weight” value (58% RH, day 5) was “+0.1111 g” and the sample weight (58% RH, day 5) was 1.6198 g. The “change in starting weight” value (58% RH, day 6) was “+0.1208 g”, the sample weight (58% RH, day 6) was 1.6295 g and the “change in starting weight” value (58% RH, day 7) was “+0.1333 g”. The sample weight (58% RH, day 7) was 1.6420 g, the “change in starting weight” value (58% RH, day 8) was 0.1487 g and the “change in starting weight” value (58% RH, day 10) was “+0.1797 g”. For the same molecule, the “change in starting weight” value (58% RH, day 12) was “+0.2166 g”, the sample weight (58% RH, day 12) was 1.7253 g and the “change in starting weight” value (58% RH, day 13) was “+0.2250 g”. For the same molecule, the sample weight (58% RH, day 13) was 1.7337 g, the “change in starting weight” value (58% RH, day 14) was “+0.2338 g” and the sample weight (58% RH, day 14) was 1.7425 g. For the same molecule, the “change in starting weight” value (58% RH, day 15) was “+0.2445 g”, the sample weight (58% RH, day 15) was 1.7532 g and the “change in starting weight” value (58% RH, day 16) was “+0.2531 g”. The sample weight (58% RH, day 16) was 1.7618 g, the “change in starting weight” value (58% RH, day 17) was “+0.2593 g” and the sample weight (58% RH, day 17) was 1.7680 g. For the same molecule, the “change in starting weight” value (58% RH, day 21) was “+0.2773 g”, the sample weight (58% RH, day 21) was 1.7860 g and the “change in starting weight” value (58% RH, day 23) was “+0.2818 g”. For the same molecule, the sample weight (58% RH, day 23) was 1.7905 g, the “change in starting weight” value (58% RH, day 26) was “+0.2818 g” and the “Percent change based on average” value (75% RH) was “+21%”. The sample weight (75% RH, day 0 (starting weight)) was 1.5037 g, the “change in starting weight” value (75% RH, day 1) was “+0.0581 g” and the sample weight (75% RH, day 1) was 1.5618 g. For the same molecule, the “change in starting weight” value (75% RH, day 2) was “+0.1166 g”, the sample weight (75% RH, day 2) was 1.6203 g and the “change in starting weight” value (75% RH, day 3) was “+0.1625 g”. The sample weight (75% RH, day 3) was 1.6662 g, the “change in starting weight” value (75% RH, day 4) was “+0.2103 g” and the sample weight (75% RH, day 4) was 1.7140 g. The “change in starting weight” value (75% RH, day 5) was “+0.2501 g”, the sample weight (75% RH, day 5) was 1.7538 g and the “change in starting weight” value (75% RH, day 6) was “+0.2825 g”. The sample weight (75% RH, day 6) was 1.7862 g, the “change in starting weight” value (75% RH, day 7) was “+0.3054 g” and the sample weight (75% RH, day 7) was 1.8091 g. The “change in starting weight” value (75% RH, day 8) was “+0.3152 g”, the “change in starting weight” value (75% RH, day 10) was “+0.3165 g” and the “change in starting weight” value (75% RH, day 12) was “+0.3197 g”. The sample weight (75% RH, day 12) was 1.8234 g, the “change in starting weight” value (75% RH, day 13) was “+0.3171 g” and the sample weight (75% RH, day 13) was 1.8208 g. The “change in starting weight” value (75% RH, day 14) was “+0.3152 g”, the sample weight (75% RH, day 14) was 1.8189 g and the “change in starting weight” value (75% RH, day 15) was “+0.3146 g”. For the same molecule, the sample weight (75% RH, day 15) was 1.8183 g, the “change in starting weight” value (75% RH, day 16) was “+0.3139 g” and the sample weight (75% RH, day 16) was 1.8176 g. The “change in starting weight” value (75% RH, day 17) was “+0.3117 g”, the sample weight (75% RH, day 17) was 1.8154 g and the “Percent change based on average” value (84% RH) was “+22%”. The sample weight (84% RH, day 0 (starting weight)) was 1.5023 g, the “change in starting weight” value (84% RH, day 1) was “+0.0712 g” and the sample weight (84% RH, day 1) was 1.5735 g. The “change in starting weight” value (84% RH, day 2) was “+0.1330 g”, the sample weight (84% RH, day 2) was 1.6353 g and the “change in starting weight” value (84% RH, day 3) was “+0.1952 g”. For the same molecule, the sample weight (84% RH, day 3) was 1.6975 g, the “change in starting weight” value (84% RH, day 4) was “+0.2498 g” and the sample weight (84% RH, day 4) was 1.7521 g. For the same molecule, the “change in starting weight” value (84% RH, day 5) was “+0.2949 g”, the sample weight (84% RH, day 5) was 1.7972 g and the “change in starting weight” value (84% RH, day 6) was “+0.3169 g”. The sample weight (84% RH, day 6) was 1.8192 g, the “change in starting weight” value (84% RH, day 7) was “+0.3275 g” and the sample weight (84% RH, day 7) was 1.8298 g. For the same molecule, the “change in starting weight” value (84% RH, day 8) was “+0.3301 g”, the “change in starting weight” value (84% RH, day 12) was “+0.3322 g” and the sample weight (84% RH, day 12) was 1.8345 g. The “change in starting weight” value (84% RH, day 13) was “+0.3288 g”, the sample weight (84% RH, day 13) was 1.8311 g and the “change in starting weight” value (84% RH, day 14) was “+0.3260 g”. For the same molecule, the sample weight (84% RH, day 14) was 1.8283 g, the “change in starting weight” value (84% RH, day 15) was “+0.3255 g” and the sample weight (84% RH, day 15) was 1.8278 g. The “change in starting weight” value (84% RH, day 16) was “+0.3249 g”, the sample weight (84% RH, day 16) was 1.8272 g and the “change in starting weight” value (84% RH, day 17) was “+0.3225 g”. For the same molecule, the sample weight (84% RH, day 17) was 1.8248 g.
